Results: patent publication US8106055B2, “Substituted amide compounds” (Gruenenthal GmbH, priority 2007, dated 2012)

Key:
[1] = target: T1, bradykinin 1 receptor (B1R) of the rat (Rattus norvegicus, UniProt P97583); assay: Functional investigation on the rat bradykinin 1 receptor (B1R), Ca2+ FLIPR assay in CHO K1 rB1R cells; type: cell-based; settings: test substance 10 μM, Ca2+ FLIPR, CHO K1 rB1R cells; for inhibition at 10 µM: CHO-K1, B1R antagonism rat, read-out: B1R Ant. r [10 μM] % Inhibition
T1 construct: expressed in transfected cells; host or cells: CHO K1 cells
T1 sequence (P97583 1-337): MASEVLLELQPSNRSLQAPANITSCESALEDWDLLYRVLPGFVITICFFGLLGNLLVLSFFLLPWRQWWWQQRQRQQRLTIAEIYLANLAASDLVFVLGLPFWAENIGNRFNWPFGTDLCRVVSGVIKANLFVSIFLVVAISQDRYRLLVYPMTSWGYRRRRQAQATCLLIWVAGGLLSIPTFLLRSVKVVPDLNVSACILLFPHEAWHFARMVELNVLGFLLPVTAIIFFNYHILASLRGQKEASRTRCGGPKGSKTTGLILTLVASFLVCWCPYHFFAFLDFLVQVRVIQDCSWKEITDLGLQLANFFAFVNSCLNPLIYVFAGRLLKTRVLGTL
Summary of the method: (§1)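 Stably transfected CHO K1 cells loaded with Fluo-4; FLIPR Ca2+ fluorescence peak (ex 488/em 540 nm). Compound added first (agonism vs Lys-Des-Arg9-bradykinin ≥50 nM human, Des-Arg9-bradykinin 10 μM rat), then after 10-20 min agonist at EC80; antagonism as % inhibition, IC50 from concentration series, n=2-3, N≥2.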

[2] = target: T2, human μ opiate receptor (Homo sapiens, UniProt P35372); assay: Affinity for the human μ opiate receptor ([3H]-naloxone displacement, CHO-K1 receptor membrane preparation, SPA); type: binding; settings: Table 3, to be read in the same way as Table 1, test concentration 1 μM; for inhibition at 1 µM: 1.5 h, read-out: μ
T2 construct: purchased PerkinElmer Life Sciences, Zaventem, Belgium RB-HOM; host or cells: CHO-K1 cells (membrane preparation)
T2 sequence (P35372 whole entry): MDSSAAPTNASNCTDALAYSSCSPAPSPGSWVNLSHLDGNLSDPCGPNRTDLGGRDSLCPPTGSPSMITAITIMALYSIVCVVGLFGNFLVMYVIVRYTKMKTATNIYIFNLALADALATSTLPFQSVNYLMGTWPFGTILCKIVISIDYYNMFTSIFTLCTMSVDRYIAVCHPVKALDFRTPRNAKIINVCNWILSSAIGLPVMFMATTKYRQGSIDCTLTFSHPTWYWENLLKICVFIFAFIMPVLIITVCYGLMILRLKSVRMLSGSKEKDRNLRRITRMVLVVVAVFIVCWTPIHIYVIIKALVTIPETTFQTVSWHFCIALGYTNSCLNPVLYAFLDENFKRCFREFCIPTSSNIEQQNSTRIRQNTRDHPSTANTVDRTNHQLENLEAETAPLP
Summary of the method: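 CHO-K1 membranes expressing human μ receptor incubated 90 min at room temperature with 1 nmol/l [3H]-naloxone and WGA-SPA beads in 50 mmol/l Tris-HCl, 0.06% BSA; 100 μmol/l naloxone defines non-specific binding. Values are % inhibition of specific binding at 1 μM; IC50 converted to Ki by Cheng-Prusoff.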

[3] = target: T3, human bradykinin 1 receptor (B1R) (Homo sapiens, UniProt P46663); assay: Functional investigation on the human bradykinin 1 receptor (B1R), Ca2+ FLIPR assay in CHO K1 hB1R cells; type: cell-based; settings: test substance 10 μM, Ca2+ FLIPR, CHO K1 hB1R cells; for inhibition at 10 µM: CHO-K1, B1R antagonism human, read-out: B1R Ant. h [10 μM] % Inhibition
T3 construct: expressed in transfected cells; host or cells: CHO K1 cells
T3 sequence (P46663 1-353): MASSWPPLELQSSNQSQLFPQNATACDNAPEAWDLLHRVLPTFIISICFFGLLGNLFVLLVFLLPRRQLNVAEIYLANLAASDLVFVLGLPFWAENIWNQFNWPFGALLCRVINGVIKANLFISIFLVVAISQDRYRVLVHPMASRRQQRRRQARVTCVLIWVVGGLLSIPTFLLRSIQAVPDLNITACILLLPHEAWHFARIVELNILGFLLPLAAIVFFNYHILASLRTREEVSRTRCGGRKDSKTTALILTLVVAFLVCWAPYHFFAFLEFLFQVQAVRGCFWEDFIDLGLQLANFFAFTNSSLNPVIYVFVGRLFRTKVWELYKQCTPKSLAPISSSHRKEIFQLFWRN
Summary of the method: as §1

Row | SMILES | inhibition at 10 µM [1] | inhibition at 1 µM [2] | inhibition at 10 µM [3] | B1R Ant. r [10 μM] % Inhibition ([1]; B1R antagonism rat) | μ [2] | B1R Ant. h [10 μM] % Inhibition ([3]; B1R antagonism human)
1 | CN(CCOCC(=O)NC1CCC(C(c2ccccc2)N2CCOCC2)CC1)S(=O)(=O)c1c(Cl)cccc1Cl (stereo not drawn) [Example 683, 2-(2-(2,6-dichloro-N-methylphenylsulfonamido)ethoxy)-N-(4-(morpholino(phenyl)methyl)cyclohexyl)acetamide] | 48% | 5% | 32% | – | – | –
2 | CN1CCN(C(c2ccccc2)C2CCC(NC(=O)COCCN(C)S(=O)(=O)c3c(Cl)cccc3Cl)CC2)CC1 (stereo not drawn) [Example 684, 2-(2-(2,6-dichloro-N-methylphenylsulfonamido)ethoxy)-N-(4-((4-methylpiperazin-1-yl)(phenyl)methyl)cyclohexyl)acetamide] | 61% | 29% | 95% | – | – | –
3 | O=C(COC1CCN(S(=O)(=O)c2c(Cl)cc(Cl)cc2Cl)C1)NC1CCC(C(c2ccccc2)N2CCOCC2)CC1 (stereo not drawn) [Example 685, N-(4-(morpholin(phenyl)methyl)cyclohexyl)-2-(1-(2,4,6-trichlorophenylsulfonyl)pyrrolidin-3-yloxy)acetamide] | – | – | – | 18% | 3 % inhibition | 13%
4 | CN1CCN(C(c2ccccc2)C2CCC(NC(=O)COC3CCN(S(=O)(=O)c4c(Cl)cc(Cl)cc4Cl)C3)CC2)CC1 (stereo not drawn) [Example 686, N-(4-((4-methylpiperazin-1-yl)(phenyl)methyl)cyclohexyl)-2-(1-(2,4,6-trichlorophenylsulfonyl)pyrrolidin-3-yloxy)acetamide] | 29% | 30% | 80% | – | – | –
5 | COc1cc(C)c(S(=O)(=O)N2CCC(OCC(=O)NC3CCC(C(c4ccccc4)N4CCOCC4)CC3)C2)c(C)c1 (stereo not drawn) [Example 687, 2-(1-(4-methoxy-2,6-dimethylphenylsulfonyl)pyrrolidin-3-yloxy)-N-(4-(morpholino(phenyl)methyl)cyclohexyl)acetamide] | 88% | 6% | 48% | – | – | –
6 | COc1cc(C)c(S(=O)(=O)N2CCC(OCC(=O)NC3CCC(C(c4ccccc4)N4CCN(C)CC4)CC3)C2)c(C)c1 (stereo not drawn) [Example 688, 2-(1-(4-methoxy-2,6-dimethylphenylsulfonyl)pyrrolidin-3-yloxy)-N-(4-((4-methylpiperazin-1-yl)(phenyl)methyl)cyclohexyl)acetamide] | 94% | 20% | 103% | – | – | –
7 | CN(CCOCC(=O)NC1CCC(C(c2ccccc2)N2CCOCC2)CC1)S(=O)(=O)c1c(Cl)cc(C(F)(F)F)cc1Cl (stereo not drawn) [Example 689, 2-(2-(2,6-dichloro-N-methyl-4-(trifluoromethyl)phenylsulfonamido)ethoxy)-N-(4-(morpholino(phenyl)methyl)cyclohexyl)acetamide] | 39% | 6% | 22% | – | – | –
8 | CN1CCN(C(c2ccccc2)C2CCC(NC(=O)COCCN(C)S(=O)(=O)c3c(Cl)cc(C(F)(F)F)cc3Cl)CC2)CC1 (stereo not drawn) [Example 690, 2-(2-(2,6-dichloro-N-methyl-4-(trifluoromethyl)phenylsulfonamido)ethoxy)-N-(4-((4-methylpiperazin-1-yl)(phenyl)methyl)cyclohexyl)acetamide] | 30% | 26% | 54% | – | – | –
9 | O=C(COC1CCCN(S(=O)(=O)c2c(Cl)cc(Cl)cc2Cl)C1)NC1CCC(C(c2ccccc2)N2CCOCC2)CC1 (stereo not drawn) [Example 691, N-(4-(morpholino(phenyl)methyl)cyclohexyl)-2-(1-(2,4,6-trichlorophenylsulfonyl)piperidin-3-yloxy)acetamide] | 6% | 58% | 10% | – | – | –
10 | CN1CCN(C(c2ccccc2)C2CCC(NC(=O)COC3CCCN(S(=O)(=O)c4c(Cl)cc(Cl)cc4Cl)C3)CC2)CC1 (stereo not drawn) [Example 692, N-(4-((4-methylpiperazin-1-yl)(phenyl)methyl)cyclohexyl)-2-(1-(2,4,6-trichlorophenylsulfonyl)piperidin-3-yloxy)acetamide] | 41% | 65% | 78% | – | – | –
11 | COc1cc(C)c(S(=O)(=O)N2CCCC(OCC(=O)NC3CCC(C(c4ccccc4)N4CCOCC4)CC3)C2)c(C)c1 (stereo not drawn) [Example 693, 2-(1-(4-methoxy-2,6-dimethylphenylsulfonyl)piperidin-3-yloxy)-N-(4-(morpholino(phenyl)methyl)cyclohexyl)acetamide] | 50% | 9% | 26% | – | – | –
12 | COc1cc(C)c(S(=O)(=O)N2CCCC2COCC(=O)NC2CCC(C(c3ccccc3)N3CCOCC3)CC2)c(C)c1 (stereo not drawn) [Example 694, 2-((1-(4-methoxy-2,6-dimethylphenylsulfonyl)pyrrolidin-2-yl)methoxy)-N-(4-(morpholino(phenyl)methyl)cyclohexyl)acetamide] | 104% | 10% | 54% | – | – | –
13 | COc1cc(C)c(S(=O)(=O)N2CCCC2COCC(=O)NC2CCC(C(c3ccccc3)N3CCN(C)CC3)CC2)c(C)c1 (stereo not drawn) [Example 695, 2-((1-(4-methoxy-2,6-dimethylphenylsulfonyl)pyrrolidin-2-yl)methoxy)-N-(4-((4-methylpiperazin-1-yl)(phenyl)methyl)cyclohexyl)acetamide] | 103% | 27% | 103% | – | – | –
14 | O=C(COCC1CCCN1S(=O)(=O)c1c(Cl)cc(Cl)cc1Cl)NC1CCC(C(CCc2ccccc2)N2CCOCC2)CC1 (stereo not drawn) [Example 696, N-(4-(1-morpholino-3-phenylpropyl)cyclohexyl)-2-((1-(2,4,6-trichlorophenylsulfonyl)pyrrolidin-2-yl)methoxy)acetamide] | 91% | 21% | 43% | – | – | –
15 | O=C(COCC1CCCN1S(=O)(=O)c1c(Cl)cc(Cl)cc1Cl)NC1CCC(C(CCc2ccccc2)N2CCCCC2)CC1 (stereo not drawn) [Example 697, N-(4-(3-phenyl-1-(piperidin-1-yl)propyl)cyclohexyl)-2-((1-(2,4,6-trichlorophenylsulfonyl)pyrrolidin-2-yl)methoxy)acetamide] | 97% | 76% | 71% | – | – | –
16 | O=C(COCC1CCCN1S(=O)(=O)c1c(Cl)cc(Cl)cc1Cl)NC1CCC(C(c2ccccc2)N2CCOCC2)CC1 (stereo not drawn) [Example 698, N-(4-(morpholino(phenyl)methyl)cyclohexyl)-2-((1-(2,4,6-trichlorophenylsulfonyl)pyrrolidin-2-yl)methoxy)acetamide] | 86% | 40% | 39% | – | – | –
17 | COc1cc(C)c(S(=O)(=O)N2CCCCC2COCC(=O)NC2CCC(C(c3ccccc3)N3CCOCC3)CC2)c(C)c1 (stereo not drawn) [Example 699, 2-((1-(4-methoxy-2,6-dimethylphenylsulfonyl)piperidin-2-yl)methoxy)-N-(4-(morpholino(phenyl)methyl)cyclohexyl)acetamide] | 104% | 15% | 90% | – | – | –
18 | O=C(COCC1CCCCN1S(=O)(=O)c1c(Cl)cc(Cl)cc1Cl)NC1CCC(C(c2ccccc2)N2CCOCC2)CC1 (stereo not drawn) [Example 700, N-(4-(morpholino(phenyl)methyl)cyclohexyl)-2-((1-(2,4,6-trichlorophenylsulfonyl)piperidin-2-yl)methoxy)acetamide] | 89% | 27% | 38% | – | – | –
